Experimental data from paper PMC10614203, “Synthesis, Structure–Activity Relationships, Radiofluorination, and Biological Evaluation of [^18F]RM365, a Novel Radioligand for Imaging the Human Cannabinoid Receptor Type 2 (CB2R) in the Brain with PET” (Journal of Medicinal Chemistry, 2023).

Assay: In vivo metabolism, quantification of radiometabolites by radio-HPLC in brain and plasma
Set-up: species or system mouse
Conditions: female CD-1 mice, 30 min p.i., i.v.
Description: The good in vitro results obtained for [^18F]RM365 justified its further evaluation in vivo, and we proceeded with the investigation of radioligand metabolism in mouse. The brain as well as blood samples were obtained from two female CD-1 mice 30 min after intravenous administration of [^18F]RM365. About 90% of the radioactivity detected in the brain samples accounted for intact radioligand (Figure 8), while in blood plasma, the fraction of the intact radioligand represented only 55% of the detected radioactivity (Figure 8B). Accordingly, the absence of a significant fraction of radiometabolites of [^18F]RM365 in the brain indicates the suitability of this radioligand for neuroimaging.
Figure 8 In vivo metabolism of [^18F]RM365. […]
The samples were further processed for subsequent radio-chromatographic analyses. […] The activities of supernatants and precipitates were measured in an γ-counter (1480 WIZARD, Fa. PerkinElmer), and the extraction efficiencies were calculated as the ratio of the radioactivity in the supernatant to the radioactivity in the original sample (supernatant + precipitate). The supernatants from both extractions were combined, concentrated at 70 °C under an argon stream up to a remaining volume of 100 μL, and subsequently analyzed by analytical radio-HPLC with a gradient system as applied in Section 5.2.2.

CC1(C)Cc2ccc(C#N)cc2[C@@H]1NC(=O)c1cc2cc([18F])ccc2[nH]1 [[^18F]RM365]
intact radioligand, fraction of radioactivity in blood plasma: 55%
